Assay results as given in PMC7856035 (Neuropharmacology, 2020).

Tests used:
5-HT4 receptor [1] = target: T1, 5-HT4 receptor (Rattus norvegicus, UniProt Q62758); test: block of […] 5-HT-induced PKA-RII phosphorylation in rat DRG neurons; format: cell-based
5-HT4 receptor [2] = target: T1, 5-HT4 receptor; test: agonist-induced PKA-RII phosphorylation in rat DRG neurons, reduced by GR113808; format: cell-based

T1 sequence (Q62758 whole entry): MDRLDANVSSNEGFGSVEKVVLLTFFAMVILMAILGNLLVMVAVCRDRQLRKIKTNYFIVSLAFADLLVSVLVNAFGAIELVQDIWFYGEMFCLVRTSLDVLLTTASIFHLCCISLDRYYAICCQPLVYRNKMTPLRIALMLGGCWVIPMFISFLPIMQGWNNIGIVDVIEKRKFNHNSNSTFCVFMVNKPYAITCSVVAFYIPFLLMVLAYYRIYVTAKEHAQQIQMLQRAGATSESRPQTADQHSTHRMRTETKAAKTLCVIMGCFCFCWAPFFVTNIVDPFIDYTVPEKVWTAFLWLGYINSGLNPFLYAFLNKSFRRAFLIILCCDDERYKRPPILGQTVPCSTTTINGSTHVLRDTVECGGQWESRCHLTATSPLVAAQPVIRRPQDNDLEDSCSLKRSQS

IC50 (5-HT4 receptor [1])	EC50 (5-HT4 receptor [2])	Structure (SMILES)
5.55 nM		Cn1cc(C(=O)OCC2CCN(CCNS(C)(=O)=O)CC2)c2ccccc21 [GR, GR113808]
	10.2 nM	COCCCN1CCC(NC(=O)c2cc(Cl)c(N)c3c2OCC3)CC1 [Ppr, prucalopride]
